The record followed here is patent publication US9522921B2, “Photochromic spirooxazine compounds” (Sabic Global Technologies, B.V., priority 2015, dated 2016).

Structures are written as SMILES.

A short description of this series: Absorption spectrum in toluene upon irradiation with UV-A radiation. Format: physicochemical. The source says: The properties of the compound characterized by Structure A were investigated.

As for `CN1c2ccccc2C(C)(C)C12C=Nc1cc(N(c3ccccc3)c3ccc4ccccc4c3)c3ccccc3c1O2` (centres unmarked) [Structure A, 1,3,3-trimethyl-N-(naphthalen-2-yl)-N-phenylspiro[indoline-2,2′-naphtho[1,2-b][1,4]oxazin]-6′-amine], the “color displayed upon irradiation” value (upon irradiation with UV-A radiation) is reported as “bluish-green color”. This compound had a maximum absorption (upon irradiation with UV-A radiation (open merocyanine form)) of 658 nm.
